Test results: article PMC9820377, “Molecular Characterization and Expression Patterns of Two Pheromone-Binding Proteins from the Diurnal Moth Phauda flammans (Walker) (Lepidoptera: Zygaenoidea: Phaudidae)” (International Journal of Molecular Sciences, 2022)

What was measured:
PflaPBP2 = PflaPBP2 (Phauda flammans, UniProt A0A6M6R985); assay: Fluorescence competitive binding assay with 1-NPN probe, PflaPBP2; details: recombinant protein 2 µM, 1-NPN 2 µM, 50 mM Tris-HCl buffer; for Ki: calculated from IC50 and K1-NPN, pH 7.4; for IC50: pH 7.4, room temperature
Chain of PflaPBP2 (A0A6M6R985 entry or part of it): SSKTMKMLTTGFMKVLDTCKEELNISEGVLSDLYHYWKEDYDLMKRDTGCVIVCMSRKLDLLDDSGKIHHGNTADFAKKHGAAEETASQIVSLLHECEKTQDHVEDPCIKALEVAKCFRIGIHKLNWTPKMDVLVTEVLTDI
Experimental: (§1) An RF-5301PC fluorescence spectrophotometer (Shimadzu, Kyoto, Japan) was used in this experiment for fluorescence competitive binding analysis with a 1-cm quartz colorimetric cup at room temperature. N-Phenyl-1-naphthylamine (1-NPN) was used as the probe and applied for the suitability test. The 1-NPN was excited at 337 nm, in which the emission spectra were recorded between 350 and 660 nm. The purified PflaPBP1 and PflaPBP2 were diluted to a final concentration of 2 µM of the protein solution in Tris-HCl buffer and titrated with aliquots of 1 mM 1-NPN dissolved in methanol, which were 0, 2, 4, 8, 12, 16, 20 µM. The maximum fluorescence value (manipulate peak pick) of each excitation was recorded. The binding data were obtained from three independent measurements. The dissociation constants of PflaPBP1/PflaPBP2 for 1-NPN were calculated from Scatchard plots of the binding data by using Prism 5 software (GraphPad, La Jolla, CA, USA) with nonlinear regression for the one site-specific binding method.
The two sex pheromones Z-9-hexadecenal (Z9H, 96.3% chemical purity) and (Z, Z, Z)-9,12,15-octadecatrienal (Z9O, 93% chemical purity) were obtained from Shanghai T & W Pharmaceutical Co., Ltd. (Shanghai, China) and Pherobank BV (Wijk bij Duurstede, The Netherlands). The competitive binding of these two sex pheromone components was measured using 1-NPN (2 µM) as the fluorescent probe with a stoichiometry of 1:1 (protein: ligand). PflaPBP1 or PflaPBP2 was titrated to a final concentration of 2 μmol/L with 50 mM Tris-HCl buffer. […] All sets of fluorescence spectrophotometers were the same as above. The binding data were obtained from three independent measurements. […] The following formula was adopted to calculate the binding affinities (Ki): Ki=[IC50]/1+[1−NPN/K1−NPN] ) where [1-NPN] is the free concentration of 1-NPN, [IC50] is the ligand concentration replacing 50% of the fluorescence reporter, and K1-NPN is the dissociation constant of the PflaPBP/1-NPN complex. The data were fitted with nonlinear regression model using Prism software (version 5.0).

PflaPBP1 = PflaPBP1 (Phauda flammans, UniProt A0A6M6RBM3); assay: Fluorescence competitive binding assay with 1-NPN probe, PflaPBP1; details: recombinant protein 2 µM, 1-NPN 2 µM, 50 mM Tris-HCl buffer; for Ki: calculated from IC50 and K1-NPN, pH 7.4; for IC50: pH 7.4, room temperature
Chain of PflaPBP1 (A0A6M6RBM3 entry or part of it): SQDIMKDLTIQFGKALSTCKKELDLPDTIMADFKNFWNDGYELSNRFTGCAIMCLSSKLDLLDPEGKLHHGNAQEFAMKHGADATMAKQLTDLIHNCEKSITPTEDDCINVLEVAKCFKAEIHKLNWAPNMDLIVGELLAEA
Experimental: as §1
The two sex pheromones Z-9-hexadecenal (Z9H, 96.3% chemical purity) and (Z, Z, Z)-9,12,15-octadecatrienal (Z9O, 93% chemical purity) were obtained from Shanghai T & W Pharmaceutical Co., Ltd. (Shanghai, China) and Pherobank BV (Wijk bij Duurstede, The Netherlands). The competitive binding of these two sex pheromone components was measured using 1-NPN (2 µM) as the fluorescent probe with a stoichiometry of 1:1 (protein: ligand). PflaPBP1 or PflaPBP2 was titrated to a final concentration of 2 μmol/L with 50 mM Tris-HCl buffer. The sex pheromone dissolved in methanol was gradually added to the mixed solution of protein and 1-NPN with the final concentration of each ligand added to the sample ranging from 0 μM to 20 μM. All sets of fluorescence spectrophotometers were the same as above. The binding data were obtained from three independent measurements. […] The following formula was adopted to calculate the binding affinities (Ki): Ki=[IC50]/1+[1−NPN/K1−NPN] ) where [1-NPN] is the free concentration of 1-NPN, [IC50] is the ligand concentration replacing 50% of the fluorescence reporter, and K1-NPN is the dissociation constant of the PflaPBP/1-NPN complex. The data were fitted with nonlinear regression model using Prism software (version 5.0).

Row | Ki (PflaPBP2) | IC50 (PflaPBP2) | Ki (PflaPBP1) | IC50 (PflaPBP1) | Structure (SMILES)
1 | 24.8 µM | 34 µM | 38.5 µM | 52.7 µM | CC/C=C\C/C=C\C/C=C\CCCCCCCC=O [(Z, Z, Z)-9, 12, 15-octadecatrienal]
2 | 109 µM | 149 µM | 21.3 µM | 29.1 µM | CCCCCC/C=C\CCCCCCCC=O [Z-9-hexadecenal]
